Literature values in article PMC6601333 (Biochemical and biophysical research communications, 2019).

Columns and labels:
[1] = system: HIV-2 PR
[2] = system: wild type HIV-1 PR

| Compound | inhibition of HIV-2 PR, fold worse than for HIV-1 PR ([1]; relative to HIV-1 PR) | inhibition of HIV-1 PR (in words) [2] | inhibition of HIV-2 PR (in words) [1] |
| --- | --- | --- | --- |
| CC(C)CN(C[C@@H](O)[C@H](Cc1ccccc1)NC(=O)O[C@H]1CCOC1)S(=O)(=O)c1ccc(N)cc1 [APV, amprenavir] | 19 fold |  |  |
| CC(C)CN(C[C@@H](O)[C@H](Cc1ccccc1)NC(=O)O[C@H]1CO[C@H]2OCC[C@H]21)S(=O)(=O)c1ccc(N)cc1 [DRV, darunavir] |  | effective inhibitors | effective inhibitors |
| CC(C)(C)NC(=O)[C@@H]1C[C@@H]2CCCC[C@@H]2CN1C[C@@H](O)[C@H](Cc1ccccc1)NC(=O)[C@H](CC(N)=O)NC(=O)c1ccc2ccccc2n1 [SQV, saquinavir] |  | effective inhibitors | effective inhibitors |
